Results: ChEMBL document CHEMBL3734759, “Discovery of a new class of histone deacetylase inhibitors with a novel zinc binding group” (Medchemcomm, 2015)

Experiments:
[1] = molecular target: Histone deacetylase 2 (Homo sapiens) (UniProt Q92769); conditions: at 20 µM;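 also: recombinant enzyme activity measured with the fluorogenic acetylated lysine substrate Boc-Lys(Ac)-AMC, read on a microplate reader after 30–60 min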
Description: Inhibition of human recombinant HDAC2 at 20 uM using Boc-Lys(Ac)-AMC as substrate after 30 to 60 mins by microplate reader assay

[2] = molecular target: Histone deacetylase 3 (Homo sapiens) (UniProt O15379); conditions: at 20 µM;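 also: recombinant enzyme assay with Boc-Lys(Ac)-AMC substrate, fluorescence read on a microplate reader after 30–60 min incubation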
Description: Inhibition of human recombinant HDAC3 at 20 uM using Boc-Lys(Ac)-AMC as substrate after 30 to 60 mins by microplate reader assay

[3] = Cytotoxicity against human MV411 cells assessed as growth inhibition after 24 hrs by MTS assay; format: functional, cell-based, MV4-11
[4] = molecular target: T1, Histone deacetylase (Homo sapiens) (UniProt Q13547+O15379+Q9UBN7+Q92769+Q9UQL6+Q8WUI4+Q9BY41+Q96DB2+P56524+Q9UKV0+Q969S8); experiment: Inhibition of HDAC in human MV411 cells assessed as up regulation of p21 WAF1/CIP1 expression after 4 hrs by western blot analysis; format: cell-based; conditions: MV4-11
[5] = Binding affinity to Zn2+ assessed as Zn2+/compound complex formation by ITC analysis
[6] = molecular target: T1, Histone deacetylase (Homo sapiens); experiment: Inhibition of HDAC in human MV411 cells assessed as increase in H3K9 aceylation after 4 hrs by western blot analysis; format: cell-based; conditions: MV4-11
[7] = Lipophilicity, LogP of the compound; format: physicochemical; conditions: octanol/water
[8] = Homo sapiens, MV4-11, 24 h, read-out: IC50

Sequence of Histone deacetylase 2 (Homo sapiens) (Q92769 whole entry): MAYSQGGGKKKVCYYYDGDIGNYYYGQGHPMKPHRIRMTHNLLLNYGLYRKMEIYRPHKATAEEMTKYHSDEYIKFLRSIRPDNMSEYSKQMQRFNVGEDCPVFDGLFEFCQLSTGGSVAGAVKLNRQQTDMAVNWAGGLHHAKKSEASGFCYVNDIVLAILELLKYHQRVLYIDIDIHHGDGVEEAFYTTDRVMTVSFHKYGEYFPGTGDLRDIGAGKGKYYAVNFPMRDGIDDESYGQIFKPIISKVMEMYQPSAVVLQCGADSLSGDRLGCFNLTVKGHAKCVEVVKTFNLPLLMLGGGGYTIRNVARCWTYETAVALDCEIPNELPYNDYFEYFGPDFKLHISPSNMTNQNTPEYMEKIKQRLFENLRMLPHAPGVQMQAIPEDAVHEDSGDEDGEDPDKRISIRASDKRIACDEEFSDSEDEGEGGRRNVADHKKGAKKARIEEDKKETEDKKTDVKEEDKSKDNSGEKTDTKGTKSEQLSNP
Sequence of Histone deacetylase 3 (Homo sapiens) (O15379 whole entry): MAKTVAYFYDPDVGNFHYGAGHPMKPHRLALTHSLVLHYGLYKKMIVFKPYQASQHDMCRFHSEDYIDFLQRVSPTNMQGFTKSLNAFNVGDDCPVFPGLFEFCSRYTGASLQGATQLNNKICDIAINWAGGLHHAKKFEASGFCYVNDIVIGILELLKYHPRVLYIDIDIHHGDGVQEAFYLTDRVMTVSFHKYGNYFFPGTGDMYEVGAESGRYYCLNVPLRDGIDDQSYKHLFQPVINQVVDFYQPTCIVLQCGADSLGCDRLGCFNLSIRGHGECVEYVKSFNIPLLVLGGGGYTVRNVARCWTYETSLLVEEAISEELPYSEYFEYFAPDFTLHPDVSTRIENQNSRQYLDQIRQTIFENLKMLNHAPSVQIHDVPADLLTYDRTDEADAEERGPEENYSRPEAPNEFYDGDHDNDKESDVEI

| SMILES | inhibition [1] [%] | inhibition [2] [%] | also measured |
| --- | --- | --- | --- |
| O=C(NCCCCN1C(=O)c2ccccc2C1=O)c1coc(-c2ccccc2O)n1 | 25.4 | 11 | – |
| O=C(NCC(c1ccccc1)c1ccccc1)c1coc(-c2ccccc2O)n1 | 34.8 | 23.7 | IC50 [3, 8]: 40 µM |
| O=C(NCc1cccc2ccccc12)c1coc(-c2ccccc2O)n1 | 45.2 | 32.3 | – |
| O=C(O)c1ccc(CNC(=O)c2coc(-c3ccccc3O)n2)cc1 | 56.5 | 39.7 | – |
| O=C(Nc1ccccc1)c1coc(-c2ccccc2O)n1 | 29.5 | 22.5 | IC50 [3, 8]: 25 µM |
| O=C(NO)C(c1ccccc1)c1ccccc1 | – | 76.4 | – |
| O=C(NCCCCNC(=S)NCCC(c1ccccc1)c1ccccc1)c1coc(-c2ccccc2O)n1 | 1.3 | 3.7 | – |
| CC(/C=C/C(=O)NO)=C\[C@@H](C)C(=O)c1ccc(N(C)C)cc1 | 99.2 | – | – |
| COC(=O)c1coc(-c2ccccc2O)n1 | 30.1 | 39.1 | – |
| O=C(Nc1ccc(-c2ccccc2)cc1)c1coc(-c2ccccc2O)n1 | 31.9 | 30.2 | IC50 ([3]; mv4-11): Not Active |
| O=C(Nc1ccccc1)c1ccc(CNC(=O)c2coc(-c3ccccc3O)n2)cc1 | 41.3 | 15.8 | – |
| O=C(NC(c1ccccc1)c1ccccc1)c1coc(-c2ccccc2O)n1 | 54.1 | 37.8 | inhibition [4]: Dose-dependent effect; Kd [5]: 203 nM; inhibition [6]: Dose-dependent effect; logP [7]: 3.91; IC50 [3, 8]: 7.5 µM |
| O=C(NCCCCNCCC(c1ccccc1)c1ccccc1)c1coc(-c2ccccc2O)n1 | 19.7 | 18.1 | – |
| O=C(CNC(=O)c1coc(-c2ccccc2O)n1)Nc1ccccc1 | 32 | 36.9 | – |
| O=C(NCCCCNC(=O)C(c1ccccc1)c1ccccc1)c1coc(-c2ccccc2O)n1 | 0 | 4 | – |
| O=C(O)c1coc(-c2ccccc2O)n1 | 54.8 | 38.7 | – |
| O=C(NCCc1c[nH]c2ccccc12)c1coc(-c2ccccc2O)n1 | 36 | 18.9 | – |
| O=C(NCc1ccc(-c2ccccc2)cc1)c1coc(-c2ccccc2O)n1 | 52.2 | 40.1 | IC50 [3, 8]: > 100 µM |
| O=C(NCCC(c1ccccc1)c1ccccc1)c1coc(-c2ccccc2O)n1 | 28.7 | 37.5 | IC50 ([3]; mv4-11): Not Active |
